# Experimental data published in patent US11667649B2, “Heteroaromatic macrocyclic ether chemotherapeutic agents” (Nuvalent, Inc., priority 2020, dated 2023).
# What was measured:
# ALK-wt kinase domain = target: T1, ALK-wt kinase domain (Homo sapiens, UniProt Q9UM73); assay: Biochemical kinase assay, ALK-wt; settings: 2 mM ATP substrate solution, read-out: Ki^app ALK-wt
# T1 construct: TRKA-wt (1 nM, BPS Bio, 40280) kinase domains in buffer; purchased Carna 08-518
# Procedure: (§1) First, 250 nL of compound dissolved in DMSO (100-fold of the desired concentration) was dispensed into a 384-well plate. A 12.5 μL substrate solution containing ATP (2 mM) and fluorogenic phosphorylation substrate AQT0101 (26 μM for ALK and ROS1, AssayQuant) or AQT0104 (26 μM for TRKA, AssayQuant) in buffer (50 mM HEPES pH 7.5, 0.01% Brij-35, 0.5 mM EGTA, 10 mM MgCl2) was added and mixed thoroughly. Then, a 12.5 μL kinase solution containing ALK-wt (1.5 nM, Carna, 08-518), ALK ALK L1196M/G1202R (3 nM, SignalChem, A19-12NG), ROS1-wt (0.6 nM, Carna, 08-163), ROS1-G2032R (0.5 nM, SignalChem, R14-12BG), or TRKA-wt (1 nM, BPS Bio, 40280) kinase domains in buffer ([…] HEPES pH 7.5, 0.01% Brij-35, 2% glycerol, 0.4 mg/mL BSA, 0.5 mM EGTA, and 10 mM MgCl2) was added and mixed thoroughly. The plate was sealed and read by SpectraMax Paradigm at λ=485 nm every 2 minutes for 120 minutes at 30° C. Initial rates of reaction (v) were calculated from the change in fluorescence intensity over time during the initial, linear portion of the reaction. Finally, apparent inhibitory constants (Ki^app) were determined from regression of v and I (inhibitor concentration) to Morrison Equation (E=enzyme concentration): […]
# [1] = target: T2, ALK L1196M/G1202R kinase domain (Homo sapiens, UniProt Q9UM73, G1202R/L1196M); assay: Biochemical kinase assay, ALK L1196M/G1202R; settings: 2 mM ATP substrate solution, read-out: Ki^app ALK-L1196M-G1202R
# T2 construct: TRKA-wt (1 nM, BPS Bio, 40280) kinase domains in buffer; purchased SignalChem A19-12NG
# Procedure: as §1
# ROS1-wt kinase domain = target: T3, ROS1-wt kinase domain (Homo sapiens, UniProt P08922); assay: Biochemical kinase assay, ROS1-wt; settings: 2 mM ATP substrate solution, read-out: Ki^app ROS1-wt
# T3 construct: TRKA-wt (1 nM, BPS Bio, 40280) kinase domains in buffer; purchased Carna 08-163
# Procedure: as §1
# [2] = target: T4, ROS1-G2032R kinase domain (Homo sapiens, UniProt P08922, G2032R); assay: Biochemical kinase assay, ROS1-G2032R; settings: 2 mM ATP substrate solution, read-out: Ki^app ROS1-G2032R
# T4 construct: TRKA-wt (1 nM, BPS Bio, 40280) kinase domains in buffer; purchased SignalChem R14-12BG
# Procedure: as §1
# TRKA-wt kinase domain = target: T5, TRKA-wt kinase domain (Homo sapiens, UniProt P04629); assay: Biochemical kinase assay, TRKA-wt; settings: 2 mM ATP substrate solution, read-out: Ki^app TRKA-wt
# T5 construct: TRKA-wt (1 nM, BPS Bio, 40280) kinase domains in buffer; purchased BPS Bio 40280
# Procedure: as §1
# [3] = system: TPM3-NTRK1-wt IC50 / primary target (e.g. CD74-ROS1-wt) IC50, Ba/F3 cells; assay: Cell assay TRKA selectivity (TRKA potency divided by primary target potency); format: cell-based; settings: for TPM3-NTRK1-wt/CD74-ROS1-G2032R: TRKA selectivity ratio: TPM3-NTRK1-wt IC50 / CD74-ROS1-G2032R IC50, Ba/F3 cells; for TPM3-NTRK1-wt/CD74-ROS1-wt: TRKA selectivity ratio: TPM3-NTRK1-wt IC50 / CD74-ROS1-wt IC50, Ba/F3 cells; for TPM3-NTRK1-wt/EML4-ALK-L1196M-G1202R: TRKA selectivity ratio: TPM3-NTRK1-wt IC50 / EML4-ALK-L1196M-G1202R IC50, Ba/F3 cells; for TPM3-NTRK1-wt/EML4-ALK-wt: TRKA selectivity ratio: TPM3-NTRK1-wt IC50 / EML4-ALK-wt IC50, Ba/F3 cells
# Method in brief: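 IL-3-independent Ba/F3 lines stably expressing TPM3-TRKA or the primary fusion (e.g. CD74-ROS1 wt) were exposed to 3-fold compound dilutions for 72 h. Viability was read by CellTiter-Glo luminescence, with IC50 from four-parameter logistic fit. Selectivity is TPM3-NTRK1 IC50 divided by primary-target IC50, binned A (>30-fold) to D (<1).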
Compound,Ki (ALK-wt kinase domain) [nM],Ki [1] [nM],Ki (ROS1-wt kinase domain) [nM],Ki [2] [nM],Ki (TRKA-wt kinase domain) [nM],TPM3-NTRK1-wt/CD74-ROS1-G2032R [3],TPM3-NTRK1-wt/CD74-ROS1-wt [3],TPM3-NTRK1-wt/EML4-ALK-L1196M-G1202R [3],TPM3-NTRK1-wt/EML4-ALK-wt [3]
CC1Oc2cc(cnc2N)-c2c(C#N)cnn2Cc2cnn(C)c2-c2ccc(F)cc21 (centres unmarked) [Compound 60],< 50,50 to 500,< 50,50 to 500,> 500,,,,
CCn1ncc2c1-c1cnc(N)c(c1)O[C@H](C)c1cc(F)ccc1-n1ncc(F)c1C2 [Compound 46],< 50,< 50,,< 50,< 50,,,,
"CCn1ncc2c1-c1cnc(N)c(c1)O[C@H](C)c1cc(F)ccc1-n1ncc(C#N)c1C2 [Example 47, (19R)-22-amino-3-ethyl-16-fluoro-19-methyl-20-oxa-3,4,11,12,23-pentaazapentacyclo[19.3.1.0^2,^6.0^8,^12.0^13,^18]pentacosa-1(24),2(6),4,8,10,13,15,17,21(25),22-decaene-9-carbonitrile]",,,,,,"A (bin A for very high selectivity, ratio>30-fold)","A (bin A for very high selectivity, ratio>30-fold)","C (bin C for moderate selectivity, ratio≥1)","B (bin B for high selectivity, ratio>10-fold)"
"CCc1nn(C)c2c1-c1cnc(N)c(c1)OCc1cc(F)ccc1-n1nc(C)cc1C2 [Example 55, 3-ethyl-16-fluoro-5,10-dimethyl-20-oxa-4,5,11,12,23-pentaazapentacyclo[19.3.1.0^2,^6.0^8,^12.0^13,^18]pentacosa-1(24),2(6),3,8,10,13,15,17,21(25),22-decaen-22-amine]",,,,,,"A (bin A for very high selectivity, ratio>30-fold)","A (bin A for very high selectivity, ratio>30-fold)","C (bin C for moderate selectivity, ratio≥1)","A (bin A for very high selectivity, ratio>30-fold)"
"C[C@H]1Oc2cc(cnc2N)-c2c(c(C#N)nn2CC2CC2)Cc2cccnc2-c2ccc(F)cc21 [Example 123, (20R)-23-amino-3-(cyclopropylmethyl)-17-fluoro-20-methyl-21-oxa-3,4,12,24-tetraazapentacyclo[20.3.1.0^2,^6.0^8,^13.0^14,^19]hexacosa-1(25),2(6),4,8(13),9,11,14,16,18,22(26),23-undecaene-5-carbonitrile]",,,,,,"C (bin C for moderate selectivity, ratio≥1)","A (bin A for very high selectivity, ratio>30-fold)","C (bin C for moderate selectivity, ratio≥1)","A (bin A for very high selectivity, ratio>30-fold)"
"C[C@H]1Oc2cc(cnc2N)-c2c(C#N)cnn2Cc2ccnn2-c2ccc(F)cc21 [Example 58, (19R)-22-amino-16-fluoro-19-methyl-20-oxa-4,6,11,12,23-pentaazapentacyclo[19.3.1.0^2,^6.0^8,^12.0^13,^18]pentacosa-1(24),2,4,8,10,13,15,17,21(25),22-decaene-3-carbonitrile]",,,,,,"A (bin A for very high selectivity, ratio>30-fold)","A (bin A for very high selectivity, ratio>30-fold)","B (bin B for high selectivity, ratio>10-fold)","A (bin A for very high selectivity, ratio>30-fold)"
"Cc1nc2c(s1)Cn1ncc(C#N)c1-c1cnc(N)c(c1)O[C@H](C)c1cc(F)ccc1-2 [Example 67, (19R)-22-amino-16-fluoro-10,19-dimethyl-20-oxa-9-thia-5,6,11,23-tetraazapentacyclo[19.3.1.0^2,^6.0^8,^12.0^13,^18]pentacosa-1(24),2,4,8(12),10,13,15,17,21(25),22-decaene-3-carbonitrile]",,,,,,"A (bin A for very high selectivity, ratio>30-fold)","A (bin A for very high selectivity, ratio>30-fold)","C (bin C for moderate selectivity, ratio≥1)","A (bin A for very high selectivity, ratio>30-fold)"
"C[C@H]1Oc2cc(cnc2N)-c2c(C#N)noc2Cc2cn(C)nc2-c2ccc(F)cc21 [Example 15, (19R)-22-amino-16-fluoro-10,19-dimethyl-5,20-dioxa-4,10,11,23-tetraazapentacyclo[19.3.1.0^2,^6.0^8,^12.0^13,^18]pentacosa-1(24),2(6),3,8,11,13(18),14,16,21(25),22-decaene-3-carbonitrile]",,,,,,"A (bin A for very high selectivity, ratio>30-fold)","A (bin A for very high selectivity, ratio>30-fold)","B (bin B for high selectivity, ratio>10-fold)","A (bin A for very high selectivity, ratio>30-fold)"
"CCc1noc2c1-c1cnc(N)c(c1)OCc1cc(F)ccc1-c1nn(C)cc1C2 [Example 30, 3-ethyl-16-fluoro-10-methyl-5,20-dioxa-4,10,11,23-tetraazapentacyclo[19.3.1.0^2,^6.0^8,^12.0^13,^18]pentacosa-1(24),2(6),3,8,11,13,15,17,21(25),22-decaen-22-amine]",,,,,,"A (bin A for very high selectivity, ratio>30-fold)","A (bin A for very high selectivity, ratio>30-fold)","C (bin C for moderate selectivity, ratio≥1)","A (bin A for very high selectivity, ratio>30-fold)"
"CCc1noc2c1-c1cnc(N)c(c1)O[C@H](C)c1cc(F)ccc1-c1nn(C)cc1C2 [Example 19, (19R)-3-ethyl-16-fluoro-10,19-dimethyl-5,20-dioxa-4,10,11,23-tetraazapentacyclo[19.3.1.0^2,^6.0^8,^12.0^13,^18]pentacosa-1(24),2(6),3,8,11,13,15,17,21(25),22-decaen-22-amine]",,,,,,"A (bin A for very high selectivity, ratio>30-fold)","A (bin A for very high selectivity, ratio>30-fold)","C (bin C for moderate selectivity, ratio≥1)","A (bin A for very high selectivity, ratio>30-fold)"

# Now from value to compound, other results behind:
Ki (ALK-wt kinase domain) [nM],Ki [1] [nM],Ki (ROS1-wt kinase domain) [nM],Ki [2] [nM],Ki (TRKA-wt kinase domain) [nM],Compound,TPM3-NTRK1-wt/CD74-ROS1-G2032R [3],TPM3-NTRK1-wt/CD74-ROS1-wt [3],TPM3-NTRK1-wt/EML4-ALK-L1196M-G1202R [3],TPM3-NTRK1-wt/EML4-ALK-wt [3]
< 50,< 50,< 50,< 50,50 to 500,Cc1nn(CC2CC2)c2c1Cc1cn(C)nc1-c1ccc(F)cc1[C@@H](C)Oc1cc-2cnc1N [Compound 53],,,,
< 50,< 50,< 50,< 50,50 to 500,C[C@H]1Oc2cc(cnc2N)-c2c(cnn2CC2CC2)Cc2cn(C)nc2-c2ccc(F)cc21 [Compound 121],,,,
< 50,< 50,< 50,< 50,50 to 500,C[C@H]1Oc2cc(cnc2N)-c2c(nn(C)c2CC2CC2)Cc2cn(C)nc2-c2ccc(F)cc21 [Compound 179],,,,
< 50,< 50,< 50,< 50,50 to 500,CCc1nnn2c1-c1cnc(N)c(c1)O[C@H](C)c1cc(F)ccc1-c1ncc(F)cc1C2 [Compound 16],,,,
< 50,< 50,< 50,< 50,50 to 500,C[C@H]1Oc2cc(cnc2N)-c2c(nnn2CC2CC2)Cc2cn(C)nc2-c2ccc(F)cc21 [Compound 29],,,,
< 50,< 50,,,> 500,C[C@H]1Oc2cc(cnc2N)-c2c(cnn2CC2(C)CC2)Cc2cn(C)nc2-c2ccc(F)cc21 [Compound 159],,,,
,< 50,,,< 50,CCc1nn(C)c2c1-c1cnc(N)c(c1)O[C@H](C)c1cc(F)ccc1-c1nc(C)sc1C2 [Compound 173],,,,
